Reference: US9688662B2, “N-(2,3-dihydro-1H-pyrrolo[2,3-b]pyridin-5-yl)-4-quinazolinamine and N-(2,3-dihydro-1H-indol-5-yl)-4-quinazolinamine derivatives as perk inhibitors” (Janssen Pharmaceutica NV, priority 2013, dated 2017)

Assays:
[1] = target: T1, PERK (Homo sapiens, UniProt Q9NZJ5); assay: Cell-based PERK inhibition assay (TR-FRET, phosphorylation of GFP-eIF2 alpha in HEK293 cells, tunicamycin); details: HEK293 (LanthaScreen eIF2α GripTite) cells, compounds 60 min, tunicamycin 2 microg/ml 120 min; for IC50: read-out: P-eIF2alpha_Lantha_cell pIC50 (converted)
T1 sequence (Q9NZJ5 30-1116): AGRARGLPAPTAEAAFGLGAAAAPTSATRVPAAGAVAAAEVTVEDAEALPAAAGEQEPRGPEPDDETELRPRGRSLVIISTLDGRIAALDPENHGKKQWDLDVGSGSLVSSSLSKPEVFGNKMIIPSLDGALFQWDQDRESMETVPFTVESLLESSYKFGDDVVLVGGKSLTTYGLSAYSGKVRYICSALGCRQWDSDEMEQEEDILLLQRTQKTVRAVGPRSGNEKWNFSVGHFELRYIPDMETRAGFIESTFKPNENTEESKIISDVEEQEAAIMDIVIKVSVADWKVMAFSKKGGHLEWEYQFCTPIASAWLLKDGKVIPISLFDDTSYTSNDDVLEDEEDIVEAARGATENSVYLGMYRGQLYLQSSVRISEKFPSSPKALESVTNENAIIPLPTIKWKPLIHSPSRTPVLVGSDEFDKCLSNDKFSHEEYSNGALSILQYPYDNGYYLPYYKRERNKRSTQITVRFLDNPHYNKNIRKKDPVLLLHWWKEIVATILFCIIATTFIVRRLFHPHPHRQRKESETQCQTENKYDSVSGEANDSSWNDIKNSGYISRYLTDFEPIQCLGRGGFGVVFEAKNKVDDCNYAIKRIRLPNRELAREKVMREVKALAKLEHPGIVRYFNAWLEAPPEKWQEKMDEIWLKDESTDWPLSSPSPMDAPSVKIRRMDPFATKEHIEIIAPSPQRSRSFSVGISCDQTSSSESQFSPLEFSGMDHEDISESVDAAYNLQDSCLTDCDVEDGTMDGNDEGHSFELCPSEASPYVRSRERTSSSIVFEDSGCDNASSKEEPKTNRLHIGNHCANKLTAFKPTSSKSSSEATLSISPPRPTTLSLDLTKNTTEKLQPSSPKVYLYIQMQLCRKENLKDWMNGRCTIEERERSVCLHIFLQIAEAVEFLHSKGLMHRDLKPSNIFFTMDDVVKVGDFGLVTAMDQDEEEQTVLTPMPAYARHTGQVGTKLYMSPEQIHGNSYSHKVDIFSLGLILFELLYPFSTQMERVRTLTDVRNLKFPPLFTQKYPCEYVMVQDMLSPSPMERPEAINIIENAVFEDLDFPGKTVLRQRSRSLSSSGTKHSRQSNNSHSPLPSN
Method: A cell-based TR-FRET assay to measure inhibition of phosphorylation of GFP-eIF2 alpha expressed in HEK293 cells by compounds was set up as follows:
LanthaScreen® eIF2α GripTite cells (Invitrogen M4387) were plated and incubated for 16-20 h at 37° C. and 5% CO2, incubated with test compounds for 60 min, and then stimulated with tunicamycin (2 microg/ml) for 120 min. Culture medium was aspirated from the wells and, the cells were lysed in LanthaScreen® Cellular Assay Lysis Buffer (Invitrogen; PV5598), supplemented with protease inhibitor cocktail (Sigma P8340, 1/1000 dilution) and phosphatase inhibitor cocktail (Sigma P0044, 1/1000 dilution), including 2 nM terbium-labeled eIF2a pSer52 antibody (Invitrogen; PV4816).

[2] = target: T1, PERK; assay: In-vitro PERK enzyme inhibition assay (LanthaScreen, KIN_PERK); format: biochemical; set-up: GST (N); purchased Invitrogen PV5106; details: recombinant GST-PERK, GFP-eIF2 alpha substrate, 5 μM ATP, 60 minutes; for IC50: read-out: KIN_PERK pIC50 (converted)
Method: Pharmacology i) In-Vitro PERK Enzyme Inhibition Assay (KIN_PERK pIC50)
The compounds of the invention were tested for inhibitory activity against PERK in an enzyme inhibition assay.
A biochemical PERK kinase assay using LanthaScreen® technology from Invitrogen using recombinant GST-PERK (Invitrogen PV5106), GFP-eIF2 alpha (full length) as substrate (Invitrogen PV4809) and the Terbium-labeled antibody (Tb-anti-peIF2alpha (pSer52); Invitrogen PV4816) as detection reagent, was performed essentially as described by the manufacturer, using following specific parameters: […]

Structure (SMILES)	IC50 [1]	melting point	KIN_PERK pIC50 [2]	IC50 [2]	P-eIF2alpha_Lantha_cell pIC50 [1]
COc1cc2ncnc(Nc3ccc4c(c3)CCN4C(=O)Cn3ccc4ccccc43)c2cc1OC [Compound 15]	~302 nM	176 °C	8.2	–	–
COc1cc2ncnc(Nc3ccc4c(c3)CCN4C(=O)Cc3csc4ccccc34)c2cc1OC [Compound 16]	501 nM	161 °C	–	5.01 nM	–
COc1cc2ncnc(Nc3ccc4c(c3)CCN4C(=O)Cc3nn(C)c4ccccc34)c2cc1OC [Compound 17]	794 nM	158 °C	–	20 nM	–
COc1cc2ncnc(Nc3ccc4c(c3)CCN4C(=O)Cc3cccs3)c2cc1OC [Compound 20]	1260 nM	219 °C	–	31.6 nM	–
COc1cc2ncnc(Nc3ccc4c(c3)CCN4C(=O)Cc3ccn(C)n3)c2cc1OC [Compound 28]	–	199 °C	6.6	–	5.1
COc1cc2ncnc(Nc3ccc4c(c3)CCN4C(=O)Cc3coc4ccccc34)c2cc1OC [Compound 30]	> 30200 nM	165 °C	8.0	–	–
COc1cc2ncnc(Nc3ccc4c(c3F)CCN4C(=O)Cc3c(C)[nH]c4ccccc34)c2cc1OC [Compound 39, 1-[5-[(6,7-dimethoxyquinazolin-4-yl)amino]-4-fluoro-indolin-1-yl]-2-(2-methyl-1H-indol-3-yl)ethanone]	–	174 °C	9.0	–	7.9
COc1cc2ncnc(Nc3ccc4c(c3)CCN4C(=O)Cc3c[nH]c4ccccc34)c2cc1OC [Compound 40]	631 nM	180 °C	–	12.6 nM	–
COc1cc2ncnc(Nc3ccc4c(c3)CCN4C(=O)Cc3cc(F)ccc3F)c2cc1OC [Compound 42]	631 nM	> 260 °C	–	6.31 nM	–
COc1cc2ncnc(Nc3ccc4c(c3)CCN4C(=O)Cn3ccnc3)c2cc1OC [Compound 53]	> 10000 nM	174 °C	–	> 10000 nM	–
